Laboratory results: US12486267B2, “Imidazo[1,2-A]pyridine and [1,2,4]triazolo[1,5-A]pyridine derivatives as TLR9 inhibitors for the treatment of fibrosis” (BRISTOL-MYERS SQUIBB COMPANY, priority 2020, dated 2025)

Assays:
Type in all cases: cell-based
human TLR9 = biological target: T1, human TLR9 (Homo sapiens, UniProt Q9NR96); test: TLR9 inhibition reporter assay (HEK-Blue cells, SEAP reporter); conditions: HEK-Blue cells overexpressing human TLR9; stimulated with ODN2006 5 nM; 22 hour incubation; SEAP readout
T1 sequence (Q9NR96 26-1032): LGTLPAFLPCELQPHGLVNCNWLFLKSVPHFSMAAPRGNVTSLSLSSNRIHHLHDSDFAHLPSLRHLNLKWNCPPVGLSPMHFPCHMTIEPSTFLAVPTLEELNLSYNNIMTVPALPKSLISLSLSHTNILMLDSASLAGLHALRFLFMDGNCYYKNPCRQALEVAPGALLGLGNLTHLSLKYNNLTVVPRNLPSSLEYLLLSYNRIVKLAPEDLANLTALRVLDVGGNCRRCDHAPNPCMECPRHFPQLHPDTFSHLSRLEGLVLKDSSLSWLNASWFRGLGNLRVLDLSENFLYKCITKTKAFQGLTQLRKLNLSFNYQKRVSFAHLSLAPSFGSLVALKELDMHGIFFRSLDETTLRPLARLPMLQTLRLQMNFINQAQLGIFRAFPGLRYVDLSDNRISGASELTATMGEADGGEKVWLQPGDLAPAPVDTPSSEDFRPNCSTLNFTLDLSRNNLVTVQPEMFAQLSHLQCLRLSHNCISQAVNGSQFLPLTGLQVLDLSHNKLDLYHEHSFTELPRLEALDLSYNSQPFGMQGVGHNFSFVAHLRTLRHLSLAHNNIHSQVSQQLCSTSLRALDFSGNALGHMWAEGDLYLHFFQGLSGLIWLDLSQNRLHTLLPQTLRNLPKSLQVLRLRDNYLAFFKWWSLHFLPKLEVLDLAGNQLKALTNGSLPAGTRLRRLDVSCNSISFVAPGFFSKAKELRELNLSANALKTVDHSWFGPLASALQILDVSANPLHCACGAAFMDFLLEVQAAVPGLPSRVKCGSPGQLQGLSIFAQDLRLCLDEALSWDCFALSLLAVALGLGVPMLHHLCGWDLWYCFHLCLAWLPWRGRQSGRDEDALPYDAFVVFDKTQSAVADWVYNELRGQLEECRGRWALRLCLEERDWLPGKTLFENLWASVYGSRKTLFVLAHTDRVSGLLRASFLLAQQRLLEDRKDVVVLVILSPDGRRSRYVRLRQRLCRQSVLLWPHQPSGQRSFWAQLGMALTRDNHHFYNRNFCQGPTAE
Outline: (§1)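 HEK-Blue cells with an NF-κB/AP-1-driven SEAP reporter were pre-treated 30 min at room temperature with compound (0.05 nM–50 μM), then stimulated with gardiquimod 7.5 μM (TLR7), R848 15.9 μM (TLR8) or ODN2006 5 nM (TLR9). After 22 h at 37 °C, SEAP was read; % inhibition was referenced to agonist+DMSO and known-inhibitor wells.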

human TLR8 = biological target: T2, human TLR8 (Homo sapiens, UniProt Q9NR97); test: TLR8 inhibition reporter assay (HEK-Blue cells, SEAP reporter); conditions: HEK-Blue cells overexpressing human TLR8; stimulated with R848 15.9 μM; 22 hour incubation; SEAP readout
T2 sequence (Q9NR97 27-1041): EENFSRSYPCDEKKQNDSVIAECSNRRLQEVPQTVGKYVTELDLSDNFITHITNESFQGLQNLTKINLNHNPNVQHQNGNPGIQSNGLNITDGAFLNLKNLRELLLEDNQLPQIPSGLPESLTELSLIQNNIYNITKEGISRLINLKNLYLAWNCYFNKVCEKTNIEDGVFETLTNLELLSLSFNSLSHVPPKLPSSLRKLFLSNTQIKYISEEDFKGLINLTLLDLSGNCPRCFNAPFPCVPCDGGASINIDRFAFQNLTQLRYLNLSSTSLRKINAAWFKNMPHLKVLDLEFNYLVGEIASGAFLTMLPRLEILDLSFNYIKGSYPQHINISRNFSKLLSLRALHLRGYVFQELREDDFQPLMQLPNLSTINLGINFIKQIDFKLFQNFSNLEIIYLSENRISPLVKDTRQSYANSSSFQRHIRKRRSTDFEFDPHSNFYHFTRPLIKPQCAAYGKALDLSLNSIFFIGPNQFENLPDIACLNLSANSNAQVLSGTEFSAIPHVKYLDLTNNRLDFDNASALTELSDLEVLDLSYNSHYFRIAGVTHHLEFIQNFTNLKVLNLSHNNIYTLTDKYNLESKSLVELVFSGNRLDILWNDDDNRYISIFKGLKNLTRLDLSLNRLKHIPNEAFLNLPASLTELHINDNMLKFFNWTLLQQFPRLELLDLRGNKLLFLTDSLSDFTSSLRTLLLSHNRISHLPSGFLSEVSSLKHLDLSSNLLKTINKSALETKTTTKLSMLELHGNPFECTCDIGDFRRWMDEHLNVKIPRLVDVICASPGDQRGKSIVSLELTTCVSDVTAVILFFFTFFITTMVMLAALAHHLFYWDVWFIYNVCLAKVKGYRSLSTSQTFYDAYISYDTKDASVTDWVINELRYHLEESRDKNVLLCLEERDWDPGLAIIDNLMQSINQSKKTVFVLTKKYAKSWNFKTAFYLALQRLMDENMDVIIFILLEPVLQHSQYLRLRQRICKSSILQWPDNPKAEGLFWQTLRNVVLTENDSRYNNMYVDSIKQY
Outline: as §1

human TLR7 = biological target: T3, human TLR7 (Homo sapiens, UniProt Q9NYK1); test: TLR7 inhibition reporter assay (HEK-Blue cells, SEAP reporter); conditions: HEK-Blue cells overexpressing human TLR7; stimulated with gardiquimod 7.5 μM; 22 hour incubation; SEAP readout
T3 sequence (Q9NYK1 27-1049): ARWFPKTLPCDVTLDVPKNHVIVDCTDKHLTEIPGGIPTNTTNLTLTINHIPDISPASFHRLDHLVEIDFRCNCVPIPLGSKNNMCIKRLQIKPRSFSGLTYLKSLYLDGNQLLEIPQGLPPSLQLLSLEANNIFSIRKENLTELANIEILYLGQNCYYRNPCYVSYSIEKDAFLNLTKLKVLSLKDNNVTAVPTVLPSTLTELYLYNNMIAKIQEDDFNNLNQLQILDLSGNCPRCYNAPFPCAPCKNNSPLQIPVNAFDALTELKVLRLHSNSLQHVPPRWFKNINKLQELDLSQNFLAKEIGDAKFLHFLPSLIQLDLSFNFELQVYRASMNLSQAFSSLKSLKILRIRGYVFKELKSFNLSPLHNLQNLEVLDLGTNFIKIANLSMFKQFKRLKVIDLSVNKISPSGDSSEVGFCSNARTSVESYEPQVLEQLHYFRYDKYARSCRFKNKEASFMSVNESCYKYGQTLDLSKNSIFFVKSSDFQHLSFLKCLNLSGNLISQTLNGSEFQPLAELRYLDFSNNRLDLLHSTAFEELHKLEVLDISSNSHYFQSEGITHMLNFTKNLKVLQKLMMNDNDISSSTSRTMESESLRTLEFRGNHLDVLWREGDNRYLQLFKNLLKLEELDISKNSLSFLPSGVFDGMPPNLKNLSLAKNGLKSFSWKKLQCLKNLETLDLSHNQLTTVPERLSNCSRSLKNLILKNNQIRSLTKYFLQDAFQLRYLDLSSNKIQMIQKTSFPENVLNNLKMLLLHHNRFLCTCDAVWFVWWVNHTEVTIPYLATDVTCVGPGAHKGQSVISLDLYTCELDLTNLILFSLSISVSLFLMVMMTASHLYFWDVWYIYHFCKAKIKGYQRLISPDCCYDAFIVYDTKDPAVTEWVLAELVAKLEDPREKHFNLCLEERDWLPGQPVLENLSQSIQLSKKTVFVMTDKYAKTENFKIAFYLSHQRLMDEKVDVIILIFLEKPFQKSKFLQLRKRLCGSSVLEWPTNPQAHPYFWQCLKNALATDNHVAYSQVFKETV
Outline: as §1

| Compound | IC50 (human TLR9) | IC50 (human TLR8) | IC50 (human TLR7) |
| --- | --- | --- | --- |
| Cc1cc(C2CC3CCC(C2)N3C2CCN(C(C)C)CC2)cn2nc(-c3ccc(S(C)(=O)=O)cc3)nc12 (stereo not drawn) [Example 160, 6-(8-(1-isopropylpiperidin-4-yl)-8-azabicyclo[3.2.1]octan-3-yl)-8-methyl-2-(4-(methylsulfonyl)phenyl)-[1,2,4]triazolo[1,5-a]pyridine] | 0.044 µM | > 50 µM | 6.9 µM |
| Cc1cc(C2CCN(C3CCN(C(C)C)CC3)CC2)cn2nc(-c3ccc(S(C)(=O)=O)cc3)nc12 [Example 162, 6-(1′-isopropyl-[1,4′-bipiperidin]-4-yl)-8-methyl-2-(4-(methylsulfonyl)phenyl)-[1,2,4]triazolo[1,5-a]pyridine] | 0.079 µM | > 50 µM | 6.9 µM |
| Cc1cc(C2CCN(C3CCN(CC(C)C)CC3)CC2)cn2nc(-c3ccc(S(C)(=O)=O)cc3)nc12 [Example 163, 6-(1′-isobutyl-[1,4′-bipiperidin]-4-yl)-8-methyl-2-(4-(methylsulfonyl)phenyl)-[1,2,4]triazolo[1,5-a]pyridine] | 0.034 µM | > 50 µM | > 50 µM |
